Assay [1] has as its target wild type MLL1 four-member complex (MLL1-4C) (Homo sapiens, UniProt Q03164). In words: MLL1 LC-MS Assay. The assay is classed as biochemical. The following applies: read-out: LCMS. The protocol: The compounds of the present disclosure were serially and separately diluted 3-fold in DMSO to obtain a total of eight or twelve concentrations. Then the test compounds at each concentration (120 nL of each) were transferred by Mosquito into white Proxiplate plus 384-well microplate (PerkinElmer). Solutions (6 μL) of 60 nM wild type MLL1 four-member complex (MLL1-4C) and 5 μM SAM in the reaction buffer (20 mM Tris-HCl, pH 8.0, 0.01% Tween 20, 1 mM DTT, 10 mM MgCl2, 0.01% BSA) were added to the wells that were then incubated with the test compound for 20 min. A 6 μL solution of 20 μM of the peptide substrate H3K4me0 (histone H3[1-21]-Biotin) in the reaction buffer was added to initiate each reaction. The final components in the reaction solution include 30 nM MLL1-4C, 2.5 μM SAM, and 10 μM H3K4me0 with varying concentration of the compounds. A positive control consisted of 30 nM MLL1-4C, 2.5 μM SAM, and 10 μM substrate in the absence of the test compound, and a negative control consisted of 2.5 μM SAM, and 10 μM substrate only. Each reaction was incubated at rt for 120 min, then stopped by addition of 3 μL per of quench solution (2.5% TFA with 320 nM d4-SAH). The reaction mixture was centrifuged (Eppendorf centrifuge 5810, Rotor A-4-62) for 2 min at 2000 rpm. The SAH production from the enzymatic assays were monitored by LC-MS/MS on an API 4000 triple quadrupole mass spec with Turbolon Spray (Applied Biosystem) coupled with Prominenece UFLC (Shimazu). The level of SAH production were then normalized based on the values coming from the positive and negative controls to give percent enzyme activities. The data were then fit to a dose response equation using the program Helios (Novartis) to get the IC50 values of the test compounds.

For assay [2], the system named is H3K4me3 in MV4-11 cells. In words: MV4-11 H3K4me3 Cellular ELISA Assay. Type of assay: cell-based. The following applies: Homo sapiens, MV4-11, 48 h. As for the experimental part: MV4-11 H3K4me3 Cellular ELISA Assay
MV4-11 (ATCC® CRL-9591™) was cultured with RPMI1640 medium (Thermo Fisher Scientific, cat #11875) supplemented with 10% FBS (Thermo Fisher Scientific, cat #10099141) and 50 U/ml Penicillin-Streptomycin (Thermo Fisher Scientific, cat #10378016) in humidified incubator at 37° C., 5% CO2.
200 nL compounds dissolved in DMSO were serially diluted at 1:3 ratio for 12 points starting from 10 mM and dispensed into each wells of cell culture plates (PDL-coated ViewPlate-384 Black, FTC, PerkinElmer, #6007710). 3,750 MV4-11 cells in 40 μL culture medium were seeded into each well and treated with desired concentration for 48 hours. After treatment, wash cells with cold phosphate based buffer (PBS, pH 7.4) and aspirate the remaining PBS buffer. Crude histone lysate was extracted by 40 μL 0.5M HCl for 1 hour in 4° C. following neutralization by adding 32 μL neutralization buffer (0.5M Sodium phosphate dibasic, pH ˜12.5, 1.25 mM Dithiothreitol, Promega #V3151, Protease Inhibitor Cocktail, Sigma #8340) for each well. 5 μL and 20 μL of histone lysate was loaded to ELISA plate (384 Well Plates, PE HB, White, 6005620) for detection of total H3 and H3K4me3, respectively. Shake the plates gently in 4° C. for overnight. After histone binding, plates were washed with 80 μL PBS/T (PBS with 0.05% Tween-20) and blocked with 50 μL 3% BSA diluted in PBS/T per well for 1 hour. Incubate wells with primary antibody for 1 hour at room temperature using anti-H3K4me3 (CST #9727) and anti-total H3 (CST #9715) diluted 1:2000 in 3% BSA. Plates were then washed with PBS/T for 3 times and incubated with horseradish peroxidase (HRP) conjugated secondary antibody (CST #7074, 1:5000) for 1 hour at room temperature. The abundance of H3K4me3 and total H3 were measured by ECL substrates chemiluminescence (Pierce, #34080) on a plate reader (PerkinElmer EnVison 2104 Mutilable Reader). Percentage inhibition was calculated against DMSO control after normalization of H3K4me3 signal to H3 signal for individual samples. The data were then fit to a dose response curve using GraphPad Prism for IC50 calculation.
In general terms: In an ELISA, binding on a coated surface is turned into a signal by an enzyme label.

Assay [3] relates to MV4-11 cells. Briefly: MV4-11 6-Day Cell Growth CTG (CellTiter-Glo) Assay. Type of assay: cell-based. The following applies: Homo sapiens, MV4-11, 144 h, MV4-11 cell growth CellTiter-Glo, 6 days. As for the experimental part: MV4-11 6-Day Cell Growth CTG (CellTiter-Glo) Assay
Acute myeloid leukemia cell MV4-11 (ATCC® CRL-9591™) was cultured with RPMI 1640 medium (Thermo Fisher Scientific, cat #11875) supplemented with 10% FBS (Thermo Fisher Scientific, cat #10099141) in humidified incubator at 37° C., 5% CO2. To assess the effect of MLL1 inhibition on cell growth, the compound of the present invention was dissolved in DMSO and serially diluted at 1:3 for 12 points starting from 10 mM then 200 nL for the replicate of each dose per well was dispensed to Viewplate-384 Black (Perkin Elmer). Exponentially growing MV4-11 cells were seeded at the density of 300 cells per well in 40 μL to the plate, so the final compound working concentration starts from 50 μM. After 6 days, 40 μL CellTiter-Glo (Promega, cat #G7573) was added into the cell culture well and luminescence was read with Envision (Perkin Elmer) to determine the viable cells. The percentage inhibition was calculated against the samples treated with DMSO only and the data were used for dose response curve fitting in GraphPad Prism to get the IC50 of representative compound of present invention, which reflects the inhibition of MLL1 activity.
A general note: ATP-based viability assays read luminescence as a measure of living cells.

In patent US20220380371A1, “MLL1 INHIBITORS AND ANTI-CANCER AGENTS” (NOVARTIS AG, priority 2019, published 2022) one finds IC50 data, which are given here for 22 compounds.

For `Nc1ncnc2c1ncn2Cc1c(N2CC[C@](N)(C(=O)NC3CC3)C2)ccc(F)c1CN1C[C@H]2CC[C@@H](C1)O2` [Example 58], the IC50 in assay [1] was 50 to 100 nM; in assay [2], under 1900 nM; in assay [3] it was under 2000 nM.

For the compound `CCN(Cc1c(F)ccc(N2CC[C@](N)(C(=O)NC3CC3)C2)c1Cn1cnc2c(N)ncnc21)C1CC1` [Example 59], the values for the IC50 in assay [1], in assay [2] and in assay [3] were under 50 nM, under 1900 nM and under 2000 nM, respectively.

Take `CN(C)Cc1c(Cl)ccc(N2CC[C@](N)(C(=O)NC3CC3)C2)c1Cn1cnc2c(N)ncnc21` [Example 60]: the IC50 in assay [1] is 50 to 100 nM; in assay [2], under 1900 nM; in assay [3], under 2000 nM.

Consider `Nc1ncnc2c1ncn2Cc1c(N2CC[C@](N)(C(=O)NC3CC3)C2)ccc(F)c1CN1CCCC1` [Example 61], for which the IC50 is 50 to 100 nM in assay [1], under 1900 nM in assay [2] and under 2000 nM in assay [3].

Take `CC1(C)CCN(Cc2c(F)ccc(N3CC[C@](N)(C(=O)NC4CC4)C3)c2Cn2cnc3c(N)ncnc32)C1` [Example 63]: the IC50 in assay [1] is over 100 nM; in assay [2], under 1900 nM; in assay [3], under 2000 nM.

As for `CC1CN(Cc2c(F)ccc(N3CC[C@](N)(C(=O)NC4CC4)C3)c2Cn2cnc3c(N)ncnc32)C1` [Example 64], the results for the IC50 in assay [1], in assay [2] and in assay [3] were 50 to 100 nM, under 1900 nM and under 2000 nM, respectively.

On to `Nc1ncnc2c1ncn2Cc1c(N2CC[C@](N)(C(=O)NC3CC3)C2)ccc(F)c1CN1CCC(F)(F)C1` [Example 66], for which the IC50 is under 50 nM in assay [1], under 1900 nM in assay [2] and under 2000 nM in assay [3].

`CCN(CC)Cc1c(F)ccc(N2CC[C@](N)(C(=O)NC3CC3)C2)c1Cn1cnc2c(N)ncnc21` [Example 67]: the IC50 in assay [1] was 50 to 100 nM; in assay [2], under 1900 nM; in assay [3], under 2000 nM.

With `Nc1ncnc2c1ncn2Cc1c(N2CC[C@](N)(C(=O)NC3CC3)C2)ccc(F)c1CN1CC[C@H](F)C1` [Example 68], the IC50 in assay [1] was under 50 nM; in assay [2], under 1900 nM; in assay [3], under 2000 nM.

For the compound `Nc1ncnc2c1ncn2Cc1c(N2CC[C@](N)(C(=O)NC3CC3)C2)ccc(F)c1CN1CCCC(F)(F)C1` [Example 69], the IC50 was 50 to 100 nM in assay [1], under 1900 nM in assay [2] and under 2000 nM in assay [3].

Regarding `CCc1c(Cl)cc(Cl)c(N2CC[C@](N)(C(=O)N3CCS(=O)(=O)CC3)C2)c1Cn1cnc2c(N)ncnc21` [Example 73], the values for the IC50 in assay [1], in assay [2] and in assay [3] were over 100 nM, under 1900 nM and under 2000 nM, respectively.

In the case of `Nc1ncnc2c1ncn2Cc1c(N2CC[C@](N)(C(=O)NC3CC3)C2)ccc(F)c1CO` [Example 76, (R)-3-amino-1-(2-((6-amino-9H-purin-9-yl)methyl)-4-fluoro-3-(hydroxymethyl)phenyl)-N-cyclopropylpyrrolidine-3-carboxamide], the IC50 in assay [1] is 50 to 100 nM; in assay [2] it was under 1900 nM; in assay [3] it was 2000 to 3000 nM.

In the case of `COCc1c(F)ccc(N2CC[C@](N)(C(=O)NC3CC3)C2)c1Cn1cnc2c(N)ncnc21` [Example 77, (R)-3-amino-1-(2-((6-amino-9H-purin-9-yl)methyl)-4-fluoro-3-(methoxymethyl)phenyl)-N-cyclopropylpyrrolidine-3-carboxamide], the IC50 in assay [1] was 50 to 100 nM; in assay [2] it was under 1900 nM; in assay [3] it was under 2000 nM.

Turning to `COCc1c(Cl)ccc(N2CC[C@](N)(C(=O)NC3CC3)C2)c1Cn1cnc2c(N)ncnc21` [Example 78], the IC50 in assay [1] was under 50 nM; in assay [2] it was under 1900 nM; in assay [3], under 2000 nM.

On to `Nc1ncnc2c1ncn2Cc1c(N2CC[C@](N)(C(=O)NC3CC3)C2)ccc(Cl)c1COC1CCOC1` (stereo partly drawn) [Example 79], for which the IC50 in assay [1] is 50 to 100 nM; in assay [2] it was under 1900 nM; in assay [3], under 2000 nM.

On to `[2H]C([2H])([2H])OCc1c(F)ccc(N2CC[C@](N)(C(=O)NC3CC3)C2)c1Cn1cnc2c(N)ncnc21` [Example 80], for which the IC50 was 50 to 100 nM in assay [1], under 1900 nM in assay [2] and under 2000 nM in assay [3].

Consider `[2H]C([2H])([2H])OCc1c(Cl)ccc(N2CC[C@](N)(C(=O)NC3CC3)C2)c1Cn1cnc2c(N)ncnc21` [Example 81], for which the IC50 in assay [1] was under 50 nM; in assay [2] it was under 1900 nM; in assay [3], under 2000 nM.

For `Nc1ncnc2c1ncn2Cc1c(Br)cc(Cl)cc1N1CC[C@](N)(c2nnn[nH]2)C1` [Example 83, (R)-9-(2-(3-amino-3-(1H-tetrazol-5-yl)pyrrolidin-1-yl)-6-bromo-4-chlorobenzyl)-9H-purin-6-amine], the IC50 is under 50 nM in assay [1], under 1900 nM in assay [2] and under 2000 nM in assay [3].

As for `CCc1cc(-c2ccccc2F)cc(N2CC[C@](N)(C(=O)NC3CC3)C2)c1Cn1cnc2c(N)ncnc21` [Example 92, (R)-3-amino-1-(4-((6-amino-9H-purin-9-yl)methyl)-5-ethyl-2′-fluoro-[1,1′-biphenyl]-3-yl)-N-cyclopropylpyrrolidine-3-carboxamide], the IC50 is under 50 nM in assay [1], under 1900 nM in assay [2] and under 2000 nM in assay [3].

As for `Nc1ncnc2c1ncn2Cc1c(N2CC[C@](N)(C(=O)NC3CC3)C2)cc(-c2cccs2)cc1C(F)(F)F` [Example 94], the IC50 in assay [1] was under 50 nM; in assay [2], under 1900 nM; in assay [3], under 2000 nM.

With `CCc1cc(-c2cccnc2)cc(N2CC[C@](N)(C(=O)NC3CC3)C2)c1Cn1cnc2c(N)ncnc21` [Example 95], the IC50 was under 50 nM in assay [1], under 1900 nM in assay [2] and under 2000 nM in assay [3].

With `CCc1cc(-c2cscn2)cc(N2CC[C@](N)(C(=O)NC3CC3)C2)c1Cn1cnc2c(N)ncnc21` [Example 98, (R)-3-amino-1-(2-((6-amino-9H-purin-9-yl)methyl)-3-ethyl-5-(thiazol-4-yl)phenyl)-N-cyclopropylpyrrolidine-3-carboxamide], the IC50 was 50 to 100 nM in assay [1], under 1900 nM in assay [2] and under 2000 nM in assay [3].
